Results published in US20170183306A1, “CYCLIC COMPOUNDS HAVING A 1,3 DIAMINO-FUNCTIONALITY FOR USE IN THE TREATMENT OF HIV INFECTION” (Universite Paris Descartes, priority 2014, published 2017).

What was measured:
Format in all cases: cell-based
HeLa-p4 cells = test: Cell viability assay (MTS) on HeLa-p4 cells; conditions: cell viability
Procedure: (§1) HeLa-p4 cells are HeLa CD4 LTR-LacZ wherein LacZ expression is induced by the trans-activating protein Tat of HIV, making possible the precise quantification of HIV-1 infectivity from a single replication cycle. HeLa-CD4 cells growing exponentially at a density of 1×10^4/mL were placed in 96-well plates and infected the following day with 1 ng of HIV p24 antigen in the presence of different concentrations of compounds. The titles for a single cycle of the viruses were determined 48 hours after infection by quantifying the beta-galactosidase activity in lysates P4 by colorimetric test (CPRG, Promega) based on the cleavage of chlorophenol red-beta-D-galactopyranoside (CPRG) by beta-galactosidase. A cell viability assay measuring the absorbance at […] using the yellow tetrazolium reagent MTS [[…]] (Promega) was carried out.
(§2) For the helap4 cells experiments, the efficacy of the compounds is determined in comparison with control cells containing wild type NL4-3 virus alone (i.e. without any added compound) and is expressed as percentage of control. Then, the viral replication was increased for several compounds at the 50 and 100 μM concentrations with an absence of cytotoxic effects at the same concentrations (MTS test) (table 1).

[1] = test system: wild type NL4-3 virus (HIV-1) in HeLa-p4 cells; test: HeLa-p4 single-cycle HIV-1 infectivity, beta-galactosidase CPRG test; conditions: Human immunodeficiency virus 1, NL43, HeLaP4, 48 hours after infection, control = NL4-3 virus alone; for activity at 50 µM: read-out: Hela-p4 CPRG 50 μM; for activity at 100 µM: read-out: Hela-p4 CPRG 100 μM
Procedure: as §1, §2

J-Lat cells = test: J-Lat cells, percentage of GFP-positive cells by cytometry; conditions: 24 h, compound alone
Procedure: The J-Lat were grown in RPMI 1640 medium (Gibco-BRL) supplemented with 10% fetal bovine serum, 50 U/ml of penicillin, […] of streptomycin at 37 uC in a humidified 95% air/5% CO2 atmosphere. The cells were plated at 5.105 cells in a 96 well-plate. TNF ? was purchased from Immunosource. SAHA (suberoylanilide hydroxamic acid), prostratin (12-deoxyphorbol-13-acetate) and vorinostat were obtained from Sigma-Aldrich. The J-Lat cells were treated for 24 h with the different compounds alone. The cells were washed twice in PBS, re-suspended in PBS containing 4% paraformaldehyde and fixed for 30 min. Cells were next washed and re-suspended in PBS. The percentage of GFP-positive cells was measured with a LSRFortessa cytometer (Becton-Dickinson) using FACSDiva Version 6.1.3 according to the manufacturer's instructions.
The results for the J-Lat cells experiments are expressed as a percentage of the living fluorescent cells. In this model, some slight increase of viral production measured by fluorescence are quantified (table 1).

## COc1cccc(CCN2C[C@H](N)C[C@H](N)C2)c1 [ECO01-026-C2, 1-(3-methoxyphenethyl)piperidine-3,5-diamine]
HeLa-p4 cells
  Hela-p4 MTS 50 μM: 106
  Hela-p4 MTS 100 μM: 98
HeLa-p4 cells; 200 μM
  Hela-p4 MTS 200 μM: 72
[1]
  activity at 50 µM: 116%
  activity at 100 µM: 169%
[1]; 200 μM
  activity at 200 µM: 234%
J-Lat cells
  J-lat 50 μM: 3.3 percentage of the living fluorescent cells

## Cc1ccccc1CCN1C[C@H](N)C[C@H](N)C1 [ECO01-028-C, 1-(2-methylphenethyl)piperidine-3,5-diamine]
HeLa-p4 cells
  Hela-p4 MTS 50 μM: 91
  Hela-p4 MTS 100 μM: 94
[1]
  activity at 50 µM: 108%
  activity at 100 µM: 113%
J-Lat cells
  J-lat 50 μM: 0.1 percentage of the living fluorescent cells
  J-lat 100 μM: 0 percentage of the living fluorescent cells

## Cc1ccc(CCN2C[C@H](N)C[C@H](N)C2)cc1 [ECO01-029-C, 1-(4-methylphenethyl)piperidine-3,5-diamine]
HeLa-p4 cells
  Hela-p4 MTS 50 μM: 94
  Hela-p4 MTS 100 μM: 89
[1]
  activity at 50 µM: 126%
  activity at 100 µM: 109%
J-Lat cells
  J-lat 50 μM: 0.1 percentage of the living fluorescent cells
  J-lat 100 μM: 15.8 percentage of the living fluorescent cells

## Cc1cccc(CCN2C[C@H](N)C[C@H](N)C2)c1 [ECO01-030-C, 1-(3-methylphenethyl)piperidine-3,5-diamine]
HeLa-p4 cells
  Hela-p4 MTS 50 μM: 84
  Hela-p4 MTS 100 μM: 82
[1]
  activity at 50 µM: 125%
  activity at 100 µM: 103%
J-Lat cells
  J-lat 50 μM: 0.1 percentage of the living fluorescent cells
  J-lat 100 μM: 0 percentage of the living fluorescent cells

## COc1ccccc1CCN1C[C@H](N)C[C@H](N)C1 [ECO01-031-C, 1-(2-methoxyphenethyl)piperidine-3,5-diamine]
HeLa-p4 cells
  Hela-p4 MTS 50 μM: 88
  Hela-p4 MTS 100 μM: 82
[1]
  activity at 50 µM: 88%
  activity at 100 µM: 108%
J-Lat cells
  J-lat 50 μM: 0.1 percentage of the living fluorescent cells
  J-lat 100 μM: 4.8 percentage of the living fluorescent cells

## N[C@@H]1C[C@H](N)CN(CCc2ccc3c(c2)OCO3)C1 [ECO01-033-C, 1-(2-(benzo[d][1,3]dioxol-5-yl)ethyl)piperidine-3,5-diamine]
HeLa-p4 cells
  Hela-p4 MTS 50 μM: 97
  Hela-p4 MTS 100 μM: 94
[1]
  activity at 50 µM: 103%
  activity at 100 µM: 146%
J-Lat cells
  J-lat 50 μM: 0.1 percentage of the living fluorescent cells
  J-lat 100 μM: 0.2 percentage of the living fluorescent cells

## N[C@@H]1C[C@H](N)CN(CCCc2ccccc2)C1 [ECO01-035-C, 1-(3-phenylpropyl)piperidine-3,5-diamine]
HeLa-p4 cells
  Hela-p4 MTS 50 μM: 105
  Hela-p4 MTS 100 μM: 88
[1]
  activity at 50 µM: 169%
  activity at 100 µM: 147%
J-Lat cells
  J-lat 50 μM: 1.5 percentage of the living fluorescent cells
  J-lat 100 μM: 2.8 percentage of the living fluorescent cells

## N[C@@H]1C[C@H](N)CN(c2ccccc2)C1 [ECO01-037-C, 1-phenylpiperidine-3,5-diamine]
HeLa-p4 cells
  Hela-p4 MTS 50 μM: 97
  Hela-p4 MTS 100 μM: 106
[1]
  activity at 50 µM: 103%
  activity at 100 µM: 103%
J-Lat cells
  J-lat 50 μM: 0.6 percentage of the living fluorescent cells
  J-lat 100 μM: 0.2 percentage of the living fluorescent cells

## CS(=O)(=O)c1ccc(CCN2C[C@H](N)C[C@H](N)C2)cc1 [ECO01-039-C, 1-(4-(methylsulfonyl)phenethyl)piperidine-3,5-diamine]
HeLa-p4 cells
  Hela-p4 MTS 50 μM: 95
  Hela-p4 MTS 100 μM: 108
[1]
  activity at 50 µM: 164%
  activity at 100 µM: 168%
J-Lat cells
  J-lat 50 μM: 0.1 percentage of the living fluorescent cells
  J-lat 100 μM: 0.1 percentage of the living fluorescent cells

## N[C@@H]1C[C@H](N)CN(C2Cc3ccccc3C2)C1 [ECO01-041-C, 1-(2,3-dihydro-1H-inden-2-yl)piperidine-3,5-diamine]
HeLa-p4 cells
  Hela-p4 MTS 50 μM: 98
  Hela-p4 MTS 100 μM: 84
[1]
  activity at 50 µM: 114%
  activity at 100 µM: 131%
J-Lat cells
  J-lat 50 μM: 1.0 percentage of the living fluorescent cells
  J-lat 100 μM: 0.1 percentage of the living fluorescent cells
